Assay results taken from paper PMC11579209, “Population pharmacokinetics and exposure–response relationships of maribavir in transplant recipients with cytomegalovirus infection” (Journal of Pharmacokinetics and Pharmacodynamics, 2024).
Like-named read-outs stand apart in the source and are kept apart here.

Assay: Individual predicted steady-state PK parameters (400 mg BID) derived from the final PopPK model
Assay type: in vivo
Settings: for Ctrough.ss, geometric mean (%CV) / AUC / Cmax / half-life: 400 mg BID steady state; for AUC / Cmax / half-life: human, plasma, oral, 400 mg; for AUC: read-out: AUC0–τ, geometric mean (%CV); for Cmax: read-out: Cmax.ss, geometric mean (%CV); for half-life: read-out: Half-life, geometric mean (%CV) (converted)
Experimental: The final model was used to derive individual estimates of steady-state AUC over one dosing interval (AUC0–τ), Cmax.ss, and minimum maribavir plasma concentration (Ctrough.ss) for a 400 mg BID dosing regimen for all participants in the PopPK analysis. Individual estimates of Cmax.ss, Ctrough.ss, and AUC0–τ were obtained by prediction of the concentration–time profiles (concentrations predicted at 0, 1, 2, 3, 4, 6, 8 and 12 h) after a steady-state dose of 400 mg BID for respective individuals using their individual post hoc parameter values in the absence of strong CYP3A4 inducers or strong CYP3A4 inhibitors, and zero values for residual variability. The PK parameters AUC0–τ (linear up/log down trapezoidal rule), Cmax.ss, and Ctrough.ss were determined by non-compartmental methods.
The mean (percentage coefficient of variation [CV%]), geometric mean (GM) CV%, median, and percentiles for AUC0–τ, Cmax.ss, and Ctrough.ss were obtained overall and by health status (healthy individuals, all transplant recipients with CMV infection, and transplant recipients with refractory CMV infection in the phase 3 SOLSTICE study). For transplant patients with CMV infections, summary statistics were provided by covariates of interest including age (18 to < 65 years and ≥ 65 years; 18 to < 65 years, 65 to < 75 years, and 75 to < 85 years), sex, race, ethnicity, body mass index (BMI; underweight [< 18.5 kg/m^2], normal weight [18.5 to < 25 kg/m^2], overweight [25 to < 30 kg/m^2], obese [≥ 30 kg/m^2]), concurrent PPI, concurrent H2 inhibitors, transplant type, baseline plasma CMV DNA (low and intermediate/high), CMV category, hepatic impairment (none, Child-Pugh Class A, Child-Pugh Class B), presence of CMV mutations at baseline, and baseline use of antilymphocyte antibody. For the PPI and H2 inhibitor analyses, PK parameters were computed only for patients receiving the relevant concomitant medication for all their PK observations and for those who never received the relevant concomitant medication. For healthy individuals, summary statistics were provided by the following covariates of interest: age (≤ 65 years, > 65 years), sex, race, ethnicity, and BMI.

[1] = all transplant patients with CMV infection, n = 485
[2] = refractory CMV infection (SOLSTICE only), n = 253
[3] = transplant patients with CMV, 400 mg BID
[4] = transplant patients with CMV, n = 5 in older group

CC(C)Nc1nc2cc(Cl)c(Cl)cc2n1[C@H]1O[C@@H](CO)[C@H](O)[C@@H]1O [maribavir]
Ctrough.ss, geometric mean (%CV) (all participants, n = 667): 4.33 (89.7) μg/mL
Ctrough.ss, geometric mean (%CV) [1]: 4.90 (89.7) µg/mL
Ctrough.ss, geometric mean (%CV) (healthy volunteers, n = 133): 2.89 (71.7) μg/mL
Ctrough.ss, geometric mean (%CV) [2]: 5.13 (93.0) µg/mL
GM AUC0-τ higher in transplant patients with CMV infection than in healthy volunteers (400 mg BID, steady state): 27%
GM Cmax.ss higher in transplant patients with CMV infection than in healthy volunteers (400 mg BID, steady state): 5%
AUC (all participants, n = 667): 121 µg·h/mL
Cmax (all participants, n = 667): 17200 ng/mL
half-life (all participants, n = 667): 10.9 h
AUC [1]: 128 µg·h/mL
Cmax [1]: 17200 ng/mL
AUC (healthy volunteers, n = 133): 101 µg·h/mL
Cmax (healthy volunteers, n = 133): 16400 ng/mL
half-life (healthy volunteers, n = 133): 9.04 h
Cmax [2]: 16900 ng/mL
AUC (transplant patients with refractory CMV infection (SOLSTICE only), n = 253): 129 µg·h/mL
GM AUC0-τ higher in underweight (BMI < 18.5 kg/m^2) than normal-weight patients [3]: 24%
GM AUC0τ higher in female than male patients [3]: 19%
GM Cmax.ss higher in female than male patients [3]: 25%
GM Cmax.ss higher in underweight (BMI < 18.5 kg/m^2) than normal-weight patients [3]: 31%
Maribavir exposure between patients with no, Child-Pugh class A, or Child-Pugh class B hepatic impairment [3]: similar
Maribavir exposure with or without PPI [3]: similar
Maribavir exposure with or without histamine H2 blockers [3]: similar
AUC0-τ higher in patients aged 75 to < 85 years vs 18 to < 65 years [4]: 54%
Cmax.ss higher in patients aged 75 to < 85 years vs 18 to < 65 years [4]: 38%
